Measured values reported in patent publication US10681909B2, “Herbicidal triazoles” (FMC Corporation, priority 2014, dated 2020).

Assays:
corn = assay: Test C postemergence; type: in vivo, Zea mays
In short: (§1)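 Seeds were planted in loam soil plus sand and sprayed preemergence. In parallel, potted plants in a peat-based medium were sprayed postemergence at 2 to 18 cm (1- to 4-leaf stage). Compounds were formulated in non-phytotoxic solvent with surfactant.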

pigweed [1] = assay: Test A preemergence; type: in vivo, Amaranthus retroflexus; details: 0 to 100 scale (0 no effect, 100 complete control)
In short: (§2)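 Pre- and postemergence spray tests in a loam soil–sand mixture: seeded soil received a directed spray, while established seedlings 2–10 cm high at the one- to two-leaf stage were treated over the top. Compounds were carried in non-phytotoxic solvent with surfactant.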

nutsedge, yellow = assay: Test C postemergence; type: in vivo, Cyperus esculentus
In short: as §1

oat, wild = assay: Test C postemergence; type: in vivo, Avena fatua
In short: as §1

foxtail, giant [2] = assay: Test C postemergence; type: in vivo, Setaria faberii
In short: as §1

oilseed rape = assay: Test C postemergence; type: in vivo, Brassica napus
In short: as §1

soybean = assay: Test C postemergence; type: in vivo, Glycine max
In short: as §1

waterhemp = assay: Test C postemergence; type: in vivo, Amaranthus rudis
In short: as §1

foxtail, giant [3] = assay: Test A postemergence; type: in vivo, Setaria faberii; details: 0 to 100 scale (0 no effect, 100 complete control), approx. 10 d
In short: as §2

ryegrass, Italian = assay: Test C postemergence; type: in vivo, Lolium multiflorum
In short: as §1

pigweed [4] = assay: Test A postemergence; type: in vivo, Amaranthus retroflexus; details: 0 to 100 scale (0 no effect, 100 complete control), approx. 10 d
In short: as §2

sedge, umbrella = assay: Test B flooded paddy test; type: in vivo, Cyperus difformis; details: 250 g ai/ha, applied to paddy water at 2-leaf stage, visual rating after 13 to 15 d, scale 0 (no effect) to 100 (complete control)
In short: (§3)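 Pots were flooded to 3 cm above the soil at treatment, and compounds were applied directly into the paddy water. That depth was held throughout. After 13 to 15 d in a greenhouse, plants were rated visually against untreated controls.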

barnyardgrass [5] = assay: Test B flooded paddy test; type: in vivo, Echinochloa crus-galli; details: 250 g ai/ha, applied to paddy water at 2-leaf stage, visual rating after 13 to 15 d, scale 0 (no effect) to 100 (complete control)
In short: as §3

wheat = assay: Test A postemergence; type: in vivo, Triticum aestivum; details: 0 to 100 scale (0 no effect, 100 complete control), approx. 10 d
In short: as §2

barnyardgrass [6] = assay: Test C postemergence; type: in vivo, Echinochloa crus-galli
In short: as §1

blackgrass = assay: Test C postemergence; type: in vivo, Alopecurus myosuroides
In short: as §1

lambsquarters = assay: Test C postemergence; type: in vivo, Chenopodium album
In short: as §1

galium = assay: Test C postemergence; type: in vivo, Galium aparine
In short: as §1

wheat (winter wheat) = assay: Test C postemergence; type: in vivo, Triticum aestivum
In short: as §1

chickweed = assay: Test C postemergence; type: in vivo, Stellaria media
In short: as §1

Compound: CCOc1nc(-c2ccccc2)nn1Cc1ccnc(C(F)(F)F)c1 [Compound 27]
- Plant response rating (scale of 0 to 100 where 0 is no effect and 100 is complete control) (corn; 31 g ai/ha): 10
- Plant response rating (scale of 0 to 100 where 0 is no effect and 100 is complete control) (corn; 62 g ai/ha): 15
- Plant response rating (scale of 0 to 100 where 0 is no effect and 100 is complete control) (corn; 125 g ai/ha): 10
- Plant response rating (scale of 0 to 100 where 0 is no effect and 100 is complete control) (corn; 250 g ai/ha): 25
- Plant response rating, Pigweed (pigweed [1]; 125 g ai/ha): 100
- Plant response rating, Pigweed (pigweed [1]; 500 g ai/ha, approx. 10 d): 100
- Plant response rating (scale of 0 to 100 where 0 is no effect and 100 is complete control) (nutsedge, yellow; 31 g ai/ha): 5
- Plant response rating (scale of 0 to 100 where 0 is no effect and 100 is complete control) (nutsedge, yellow; 62 g ai/ha): 5
- Plant response rating (scale of 0 to 100 where 0 is no effect and 100 is complete control) (nutsedge, yellow; 125 g ai/ha): 10
- Plant response rating (scale of 0 to 100 where 0 is no effect and 100 is complete control) (nutsedge, yellow; 250 g ai/ha): 10
- Plant response rating (scale of 0 to 100 where 0 is no effect and 100 is complete control) (oat, wild; 31 g ai/ha): 10
- Plant response rating (scale of 0 to 100 where 0 is no effect and 100 is complete control) (oat, wild; 62 g ai/ha): 10
- Plant response rating (scale of 0 to 100 where 0 is no effect and 100 is complete control) (oat, wild; 125 g ai/ha): 25
- Plant response rating (scale of 0 to 100 where 0 is no effect and 100 is complete control) (oat, wild; 250 g ai/ha): 40
- Plant response rating (scale of 0 to 100 where 0 is no effect and 100 is complete control) (foxtail, giant [2]; 31 g ai/ha): 5
- Plant response rating (scale of 0 to 100 where 0 is no effect and 100 is complete control) (foxtail, giant [2]; 62 g ai/ha): 10
- Plant response rating (scale of 0 to 100 where 0 is no effect and 100 is complete control) (foxtail, giant [2]; 125 g ai/ha): 10
- Plant response rating (scale of 0 to 100 where 0 is no effect and 100 is complete control) (foxtail, giant [2]; 250 g ai/ha): 15
- Plant response rating (scale of 0 to 100 where 0 is no effect and 100 is complete control) (oilseed rape; Oilsee Rape, 250 g ai/ha): 90
- Plant response rating (scale of 0 to 100 where 0 is no effect and 100 is complete control) (oilseed rape; Oilseed Rape, 31 g ai/ha): 90
- Plant response rating (scale of 0 to 100 where 0 is no effect and 100 is complete control) (oilseed rape; Oilseed Rape, 62 g ai/ha): 90
- Plant response rating (scale of 0 to 100 where 0 is no effect and 100 is complete control) (oilseed rape; Oilseed Rape, 125 g ai/ha): 90
- Plant response rating (scale of 0 to 100 where 0 is no effect and 100 is complete control) (soybean; 31 g ai/ha): 70
- Plant response rating (scale of 0 to 100 where 0 is no effect and 100 is complete control) (soybean; 62 g ai/ha): 95
- Plant response rating (scale of 0 to 100 where 0 is no effect and 100 is complete control) (soybean; 125 g ai/ha): 65
- Plant response rating (scale of 0 to 100 where 0 is no effect and 100 is complete control) (soybean; 250 g ai/ha): 70
- Plant response rating (scale of 0 to 100 where 0 is no effect and 100 is complete control) (waterhemp; 31 g ai/ha): 90
- Plant response rating (scale of 0 to 100 where 0 is no effect and 100 is complete control) (waterhemp; 62 g ai/ha): 95
- Plant response rating (scale of 0 to 100 where 0 is no effect and 100 is complete control) (waterhemp; 125 g ai/ha): 95
- Plant response rating (scale of 0 to 100 where 0 is no effect and 100 is complete control) (waterhemp; 250 g ai/ha): 98
- Plant response rating, Foxtail, Giant (foxtail, giant [3]; 125 g ai/ha): 90
- Plant response rating, Foxtail, Giant (foxtail, giant [3]; 500 g ai/ha): 100
- Plant response rating (scale of 0 to 100 where 0 is no effect and 100 is complete control) (ryegrass, Italian; 31 g ai/ha): 5
- Plant response rating (scale of 0 to 100 where 0 is no effect and 100 is complete control) (ryegrass, Italian; 62 g ai/ha): 20
- Plant response rating (scale of 0 to 100 where 0 is no effect and 100 is complete control) (ryegrass, Italian; 125 g ai/ha): 30
- Plant response rating (scale of 0 to 100 where 0 is no effect and 100 is complete control) (ryegrass, Italian; 250 g ai/ha): 35
- Plant response rating, Pigweed (pigweed [4]; 125 g ai/ha): 100
- Plant response rating, Pigweed (pigweed [4]; 500 g ai/ha): 100
- Plant response rating, Sedge, Umbrella, Flood (sedge, umbrella): 95
- Plant response rating, Barnyardgrass, Flood (barnyardgrass [5]): 50
- Plant response rating, Wheat (wheat; 125 g ai/ha): 20
- Plant response rating, Wheat (wheat; 500 g ai/ha): 70
- Plant response rating (scale of 0 to 100 where 0 is no effect and 100 is complete control) (barnyardgrass [6]; 31 g ai/ha): 10
- Plant response rating (scale of 0 to 100 where 0 is no effect and 100 is complete control) (barnyardgrass [6]; 62 g ai/ha): 15
- Plant response rating (scale of 0 to 100 where 0 is no effect and 100 is complete control) (barnyardgrass [6]; 125 g ai/ha): 25
- Plant response rating (scale of 0 to 100 where 0 is no effect and 100 is complete control) (barnyardgrass [6]; 250 g ai/ha): 55
- Plant response rating (scale of 0 to 100 where 0 is no effect and 100 is complete control) (blackgrass; 31 g ai/ha): 10
- Plant response rating (scale of 0 to 100 where 0 is no effect and 100 is complete control) (blackgrass; 62 g ai/ha): 15
- Plant response rating (scale of 0 to 100 where 0 is no effect and 100 is complete control) (blackgrass; 125 g ai/ha): 35
- Plant response rating (scale of 0 to 100 where 0 is no effect and 100 is complete control) (blackgrass; 250 g ai/ha): 50
- Plant response rating (scale of 0 to 100 where 0 is no effect and 100 is complete control) (lambsquarters; 31 g ai/ha): 85
- Plant response rating (scale of 0 to 100 where 0 is no effect and 100 is complete control) (lambsquarters; 62 g ai/ha): 95
- Plant response rating (scale of 0 to 100 where 0 is no effect and 100 is complete control) (lambsquarters; 125 g ai/ha): 98
- Plant response rating (scale of 0 to 100 where 0 is no effect and 100 is complete control) (lambsquarters; 250 g ai/ha): 98
- Plant response rating (scale of 0 to 100 where 0 is no effect and 100 is complete control) (galium; 31 g ai/ha): 90
- Plant response rating (scale of 0 to 100 where 0 is no effect and 100 is complete control) (galium; 62 g ai/ha): 90
- Plant response rating (scale of 0 to 100 where 0 is no effect and 100 is complete control) (galium; 125 g ai/ha): 85
- Plant response rating (scale of 0 to 100 where 0 is no effect and 100 is complete control) (galium; 250 g ai/ha): 90
- Plant response rating (scale of 0 to 100 where 0 is no effect and 100 is complete control) (wheat (winter wheat); 31 g ai/ha): 5
- Plant response rating (scale of 0 to 100 where 0 is no effect and 100 is complete control) (wheat (winter wheat); 62 g ai/ha): 5
- Plant response rating (scale of 0 to 100 where 0 is no effect and 100 is complete control) (wheat (winter wheat); 125 g ai/ha): 5
- Plant response rating (scale of 0 to 100 where 0 is no effect and 100 is complete control) (wheat (winter wheat); 250 g ai/ha): 15
- Plant response rating (scale of 0 to 100 where 0 is no effect and 100 is complete control) (chickweed; 31 g ai/ha): 95
- Plant response rating (scale of 0 to 100 where 0 is no effect and 100 is complete control) (chickweed; 62 g ai/ha): 90
- Plant response rating (scale of 0 to 100 where 0 is no effect and 100 is complete control) (chickweed; 125 g ai/ha): 90
- Plant response rating (scale of 0 to 100 where 0 is no effect and 100 is complete control) (chickweed; 250 g ai/ha): 90
